Entries after “also recorded” stand apart in the source; their conditions may differ.
How the values were obtained:
Format in all cases: cell-based
[1] = system: rat cortical stem cells; assay: Astrocyte differentiation of rat cortical stem cells (GFAP immunofluorescence); conditions: 6 days valproate vs control
Procedure: Drug treatment. For immunofluorescence and Western analysis, cells were treated daily with either 0.5 mM of valproate (Sigma), 10 ng/ml of BDNF (R & D Systems), 20 ng/ml of NT-3 (R & D Systems), 1 nM 9cis retinoic acid (Sigma) or a dilution of NCM for 6 or 7 days. In some experiments valproate was also added with NCM and/or 9cis RA for 7 days. For human stem cell experiments, valproate (0.5 mM) or BDNF (25 ng/ml) was added for 9 days. For neurite outgrowth experiments, cells were treated for 1 day with 0.5 mM valproate or 50 ng/ml of BDNF. Where applicable, medium was changed every 2 days. After about 5–10 days, preferably on day 6 (i.e., after 6 days of drug exposure) the cells were fixed with a 4% solution of para-formaldehyde (PFA) in PBS, prepared as follows: Immunofluorescent staining and visualization. Cells were plated at 20,000 cells/well in poly-L-ornithine/fibronectin (1 mg/ml) coated 24-well plates. […] For immunofluorescence, 3 different black and white pictures were taken by field of interest with a digital camera CoolSnap Fx (Princeton) corresponding to the exposure of Cy2, Cy3 and Hoechst fluorescence. […] The percentage of neurons, astrocytes and GABAergic cells was determined by comparing the number of cells immunopositive for β-tubulin III, GFAP and GABA to the number of bis-benzamide stained nuclei (i.e., total cell number). […]

[2] = system: glutamate decarboxylase (GAD); assay: Western blot of GAD 65/67 expression in rat cortical stem cell cultures; conditions: 0.5 mM valproate
Procedure: Western blotting. Cells were plated at 1×10^6 cells/100 mm dish in poly-1-ornithine-coated 10 cm dishes and treated as described supra. Denatured proteins were separated on 8% polyacrylamide Tris-Glycine gels (Novex) and transferred to nitrocellulose membranes (BioRad). Membranes were probed with antibodies against rabbit anti-GAD 65/67 (Sigma) at 1:10,000 and HRP-conjugated anti-rabbit (Jackson Immunolabs) at 1:10,000 respective dilutions. Antigen-antibody complexes were visualized using a SuperSignal West Pico Chemiluminescent Kit (Pierce).

[3] = system: rat stem cells from ventral forebrain i.e. the lateral ganglionic eminence (LGE); assay: Neuronal differentiation of rat stem cells from ventral forebrain (lateral ganglionic eminence); conditions: data not shown
Procedure: Isolation of cortical and striatal stem cells. […] The abdomen of the rat was cleaned with 70% ethanol and the uterus was removed quickly and aseptically on the bench top.
Removal of meninges is not possible at this age, and no attempt was made to do so. If the dissected tissue was in large enough chunks and settle to the bottom of the tube, no centrifugation was performed. Alternatively, the tube was centrifuged at 1000 rpm for 5 minutes to pellet the tissue. Following centrifugation, the 15 ml tube containing the tissue was sprayed with 70% ethanol and taken into the sterile hood.
About 4–5 ml of the 6 ml of cells suspension was used for plating. […] This culture is designated P0 (passage 0).
The cultures were never permitted to reach more than 70% confluency. […] It is not expected that all cells in the culture will round up as there are several cell types in the culture at P0. The pH of the HBSS should be neutral at all times during this incubation.

CCCC(CCC)C(=O)O [valproate, 2-Propylpentanoic acid] was tested. Which “expression of GFAP (astrocyte marker)” value [1] did it give?
The value was “dramatically inhibited”.

What about the GAD expression ([2]; 3 and 6 days) of the same compound?
The GAD expression was “GAD expression was increased; also recorded: increases GAD expression after 3 and 6 days”.

And the GAD expression ([2]; 1 day)?
The GAD expression was “No expression of GAD was detectable”.

What about the “percentage and number of neurons” value [3] of the same compound?
The value was “increased the percentage and number of neurons”.

Reference: patent US7132286B2, “Method for neural stem cell differentiation using valproate” (Psychiatric Genomics, Inc., priority 2001, dated 2006)
